What was measured:
Experiment in all cases: Fluorescence dose-response of purified binding-pocket-engineered sensors (0.75 uM) in 100 mM Tris-HCl pH 7.5, room temperature, 1 mM ATP, 2.5 mM MgCl2, excitation 460 or 480 nm, emission 510 nm; logistic five-parameter fit.
Type in all cases: biochemical
Conditions in all cases: n = 3
GECFINDER-Leu1 = target: T1, GECFINDER-Leu1 (Aneurinibacillus migulanus, UniProt P0C061, A301G/T278M)
T1 construct: gene grsA; GrsA-PheA-PCP
Procedure: (§1) Fig. 4 Engineering ligand specificity of GrsA-PheA for generating […]s. a The selectivity-conferring code of Phe and Leu A domains. b–f Dose–response curve of purified […]s with increasing concentrations of ligands in 100 mM Tris-HCl buffer (pH=7.5). All data shown are means ± S.D. (n = 3 biologically independent samples). g A series of […] reactions was tested to show the […]’s specificity with 20 proteinogenic amino acids. The values on the heatmap represent the ΔF/F0 value normalized to each […]’s maximal ΔF/F0 value ((ΔF/F0)/maximal ΔF/F0). The concentrations of 20 amino acids were 100 μM. The color indicates the average value of three independent biological replicates after 15 min. All data shown are means ± S.D. (n = 3 biologically independent samples). Source data are provided as a Source data file.
(§2) The study conducted dose–response curve, substrate specificity, and fluorescent spectrum analyses in 100-mM Tris buffer (pH = 7.5), while pH stability experiments were performed in 100-mM Tris buffer at three different pH values (6.5, 7.5, and 8.5) at room temperature. […] protein at a concentration of 0.75 μM, various small molecule concentrations, 1 mM ATP, and 2.5 mM MgCl2 were used in the experiments. Fluorescent signals were detected using a Microplate Reader (Synergy H4, Bio Tek) at an excitation/emission wavelength of 460 nm/510 nm or 480 nm/510 nm. The dose-response curve was determined immediately after the addition of the analyte. The total duration of the measurement was 15 min, with readings taken at one-minute intervals. The dose-response curve was plotted using the fluorescence values obtained after achieving stability in the fluorescence signal. The dose-response curves were fitted using the logistic model LOGISTIC5 available in Origin 2021, which could provide a more adequate fit to asymmetric dose-response data[62],[63]. Excitation spectra were scanned from 300 to 540 nm with a step size of 5 nm, and the emission wavelength was set to 560 nm. Emission spectra were scanned from 470 to 700 nm with a step size of 5 nm, and the excitation wavelength was set to 450 nm. The thermal stability of […] was analyzed using the UNcle multifunctional protein stability analysis system. Measurements were performed in 20 mM MOPS buffer with 2 mM DTT at a sample concentration of 1 mg/mL. Absolute fluorescence quantum yields were measured using an absolute photoluminescence quantum yield spectrometer (FS5, Edinburgh).

GECFINDER-Leu2 = target: T2, GECFINDER-Leu2 (Aneurinibacillus migulanus, UniProt P0C061, A301G/I277L/T278L)
T2 construct: gene grsA
Procedure: as §1, §2

GECFINDER-Leu3 = target: T3, GECFINDER-Leu3 (Aneurinibacillus migulanus, UniProt P0C061, A301G/S447N/T278L)
T3 construct: gene grsA
Procedure: as §1, §2

GECFINDER-Leu4 = target: T4, GECFINDER-Leu4 (Aneurinibacillus migulanus, UniProt P0C061, A301G/I277L/S447N/T278L)
T4 construct: gene grsA
Procedure: as §1, §2

T4 sequence (P0C061 1-617 I277L/T278L/A301G/S447N): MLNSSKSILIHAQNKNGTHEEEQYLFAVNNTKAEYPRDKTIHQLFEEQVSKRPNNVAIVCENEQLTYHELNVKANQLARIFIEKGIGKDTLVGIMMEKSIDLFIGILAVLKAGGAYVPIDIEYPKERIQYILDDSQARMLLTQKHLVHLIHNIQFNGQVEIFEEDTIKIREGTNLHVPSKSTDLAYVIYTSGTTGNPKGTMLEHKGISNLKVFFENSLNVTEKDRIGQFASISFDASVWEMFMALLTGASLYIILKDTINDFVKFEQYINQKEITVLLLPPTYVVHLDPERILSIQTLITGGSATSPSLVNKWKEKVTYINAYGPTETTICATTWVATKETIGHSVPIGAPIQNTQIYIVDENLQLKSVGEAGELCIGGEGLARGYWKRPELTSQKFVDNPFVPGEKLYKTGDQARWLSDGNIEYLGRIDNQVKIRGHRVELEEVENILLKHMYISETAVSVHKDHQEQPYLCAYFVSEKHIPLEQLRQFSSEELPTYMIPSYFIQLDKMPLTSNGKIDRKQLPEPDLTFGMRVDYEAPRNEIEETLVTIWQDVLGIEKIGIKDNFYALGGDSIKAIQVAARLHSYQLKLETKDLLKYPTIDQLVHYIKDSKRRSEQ
T1 sequence (P0C061 1-617 T278M/A301G): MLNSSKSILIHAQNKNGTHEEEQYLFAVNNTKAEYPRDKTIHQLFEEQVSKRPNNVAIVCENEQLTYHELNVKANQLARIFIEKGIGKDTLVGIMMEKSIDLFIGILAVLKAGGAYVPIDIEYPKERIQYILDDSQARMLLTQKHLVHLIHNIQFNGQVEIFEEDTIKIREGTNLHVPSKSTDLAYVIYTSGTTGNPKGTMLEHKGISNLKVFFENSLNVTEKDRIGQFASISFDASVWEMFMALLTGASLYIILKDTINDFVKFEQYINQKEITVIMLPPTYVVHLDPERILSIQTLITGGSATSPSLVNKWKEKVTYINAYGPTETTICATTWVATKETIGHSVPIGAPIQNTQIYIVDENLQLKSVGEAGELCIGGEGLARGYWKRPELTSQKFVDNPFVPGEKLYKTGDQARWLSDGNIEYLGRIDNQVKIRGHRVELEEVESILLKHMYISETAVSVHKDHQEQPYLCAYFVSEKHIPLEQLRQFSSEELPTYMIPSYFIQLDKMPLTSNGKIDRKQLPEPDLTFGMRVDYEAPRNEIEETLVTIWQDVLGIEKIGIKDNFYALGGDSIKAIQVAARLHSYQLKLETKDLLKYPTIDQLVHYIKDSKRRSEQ
T2 sequence (P0C061 1-617 I277L/T278L/A301G): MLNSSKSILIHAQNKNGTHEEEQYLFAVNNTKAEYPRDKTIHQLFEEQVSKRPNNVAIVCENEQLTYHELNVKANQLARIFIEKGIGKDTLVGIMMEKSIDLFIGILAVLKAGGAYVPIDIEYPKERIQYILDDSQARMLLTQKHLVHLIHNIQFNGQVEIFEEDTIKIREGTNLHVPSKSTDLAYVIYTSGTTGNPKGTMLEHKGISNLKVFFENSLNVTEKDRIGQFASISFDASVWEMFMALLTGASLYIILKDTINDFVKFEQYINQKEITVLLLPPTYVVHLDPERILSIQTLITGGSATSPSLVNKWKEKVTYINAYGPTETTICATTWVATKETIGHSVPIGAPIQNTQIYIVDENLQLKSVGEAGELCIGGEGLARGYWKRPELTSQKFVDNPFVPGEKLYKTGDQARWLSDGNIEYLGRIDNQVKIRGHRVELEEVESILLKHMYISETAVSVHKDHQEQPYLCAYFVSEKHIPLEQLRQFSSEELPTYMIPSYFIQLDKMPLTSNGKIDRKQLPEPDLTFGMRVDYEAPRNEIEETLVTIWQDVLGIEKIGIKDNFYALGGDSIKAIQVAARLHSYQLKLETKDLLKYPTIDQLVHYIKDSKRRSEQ
T3 sequence (P0C061 1-617 T278L/A301G/S447N): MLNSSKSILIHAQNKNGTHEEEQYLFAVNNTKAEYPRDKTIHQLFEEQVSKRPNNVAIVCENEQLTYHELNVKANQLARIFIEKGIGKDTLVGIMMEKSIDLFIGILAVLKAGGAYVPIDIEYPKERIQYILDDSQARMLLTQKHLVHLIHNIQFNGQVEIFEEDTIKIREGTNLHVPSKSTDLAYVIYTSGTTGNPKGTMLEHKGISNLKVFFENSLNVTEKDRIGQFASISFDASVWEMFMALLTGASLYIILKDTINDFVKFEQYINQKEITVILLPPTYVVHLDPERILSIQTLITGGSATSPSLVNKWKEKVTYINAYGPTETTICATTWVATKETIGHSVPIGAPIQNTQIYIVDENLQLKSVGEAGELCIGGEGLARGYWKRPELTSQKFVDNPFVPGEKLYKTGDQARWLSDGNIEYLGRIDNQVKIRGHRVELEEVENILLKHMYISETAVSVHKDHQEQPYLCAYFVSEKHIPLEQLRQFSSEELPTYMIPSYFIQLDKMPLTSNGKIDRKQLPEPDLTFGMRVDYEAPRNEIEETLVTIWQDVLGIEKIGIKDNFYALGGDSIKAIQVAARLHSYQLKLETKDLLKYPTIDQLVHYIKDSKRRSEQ

**Q.** How did the EC50 (GECFINDER-Leu1) turn out when CC(C)C[C@H](N)C(=O)O [Leu, leucine] was run?
**A.** The EC50 was 58.4 ± 24.8 µM.

**Q.** And the EC50 (GECFINDER-Leu2)?
**A.** The EC50 was 207 ± 37.2 µM.

**Q.** What about the EC50 (GECFINDER-Leu3) of the same compound?
**A.** Its EC50 is 200 ± 7.76 µM.

**Q.** What about the EC50 (GECFINDER-Leu4) of the same compound?
**A.** The EC50 was 106 ± 24.5 µM.

From paper PMC10590383, “Repurposing conformational changes in ANL superfamily enzymes to rapidly generate biosensors for organic and amino acids” (Nature Communications, 2023)
